Laboratory results reported in ChEMBL document CHEMBL1128973, “Potent matrix metalloproteinase inhibitors: Amino-carboxylate compounds containing modifications of the P1 residue” (Bioorg Med Chem Lett, 1996).
pIC50: −log10 of the molar value.

Molecular target: Stromelysin-1 (Homo sapiens, UniProt P08254)
Test: Inhibitory activity against Matrix metalloprotease-3

Sequence of Stromelysin-1 (P08254 whole entry): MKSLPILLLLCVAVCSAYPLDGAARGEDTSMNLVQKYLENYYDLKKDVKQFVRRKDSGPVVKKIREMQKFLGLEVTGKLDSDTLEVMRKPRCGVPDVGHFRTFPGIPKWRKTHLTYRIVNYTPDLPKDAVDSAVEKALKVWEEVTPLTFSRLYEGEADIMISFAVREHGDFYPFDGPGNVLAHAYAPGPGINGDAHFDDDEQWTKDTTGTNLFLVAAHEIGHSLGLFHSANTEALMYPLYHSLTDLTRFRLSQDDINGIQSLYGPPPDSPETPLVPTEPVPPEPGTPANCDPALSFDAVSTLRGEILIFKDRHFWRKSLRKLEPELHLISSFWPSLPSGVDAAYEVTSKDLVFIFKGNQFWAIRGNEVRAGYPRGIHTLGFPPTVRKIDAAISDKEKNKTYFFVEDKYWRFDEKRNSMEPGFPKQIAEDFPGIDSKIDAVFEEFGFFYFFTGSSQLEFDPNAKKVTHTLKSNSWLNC

Row | SMILES | pIC50
1 | CNC(=O)[C@H](Cc1ccccc1)NC(=O)[C@H](CCc1ccccc1)N[C@@H](CCN1C(=O)NC2(CCCC2)C1=O)C(=O)O | 5.72
2 | CCOC(=O)N1CCC(NC(=O)[C@H](CCc2ccccc2)N[C@@H](CCNS(=O)(=O)c2ccc(OC)cc2)C(=O)O)CC1 | < 4.70
3 | COc1ccc(S(=O)(=O)NCC[C@H](N[C@@H](CCc2ccccc2)C(=O)N2CCOCC2)C(=O)O)cc1 | < 4.70
4 | COc1ccc(S(=O)(=O)NCC[C@H](N[C@@H](CCc2ccccc2)C(=O)N2CCN(S(C)(=O)=O)CC2)C(=O)O)cc1 | < 4.70
5 | COc1ccc(S(=O)(=O)NCC[C@H](N[C@@H](CCc2ccccc2)C(=O)NCc2ccc(C(=O)O)cc2)C(=O)O)cc1 | 4.85
6 | CCOC(=O)N1CCN(C(=O)[C@H](CCc2ccccc2)N[C@@H](CCNS(=O)(=O)c2ccc(OC)cc2)C(=O)O)CC1 | < 4.70
7 | CNC(=O)[C@H](Cc1ccccc1)NC(=O)[C@H](CCc1ccccc1)N[C@@H](CCNC(=O)c1cc2ccccc2[nH]1)C(=O)O | 5.96
8 | COc1ccc(S(=O)(=O)NCC[C@H](N[C@@H](CCc2ccccc2)C(=O)N2CCC(O)CC2)C(=O)O)cc1 | < 4.70
9 | CNC(=O)c1ccc(CNC(=O)[C@H](CCc2ccccc2)N[C@@H](CCNS(=O)(=O)c2ccc(OC)cc2)C(=O)O)cc1 | 4.74

The next molecules have a higher pIC50 than those just listed; values first:

Row | pIC50 | SMILES
10 | 7.30 | COc1ccc(S(=O)(=O)NCC[C@H](N[C@@H](CCc2ccccc2)C(=O)N[C@@H](CC(C)C)C(=O)Nc2ccccc2)C(=O)O)cc1
11 | 6.92 | CNC(=O)[C@H](Cc1ccccc1)NC(=O)[C@H](CCc1ccccc1)N[C@@H](CCNS(=O)(=O)c1ccc(C)cc1)C(=O)O
12 | 6.26 | COc1ccc(S(=O)(=O)NCC[C@H](N[C@@H](CCc2ccccc2)C(=O)N[C@@H](CC(C)C)C(=O)NOCc2ccccc2)C(=O)O)cc1
13 | 7.30 | Cc1ccc(S(=O)(=O)NCC[C@H](N[C@@H](CCc2ccccc2)C(=O)N[C@@H](CC(C)C)C(=O)Nc2ccccc2)C(=O)O)cc1
14 | 6.29 | CNC(=O)[C@H](Cc1ccccc1)NC(=O)[C@H](CCc1ccccc1)N[C@@H](CCNS(=O)(=O)c1ccc2ccccc2c1)C(=O)O
